Assay results published in PubChem BioAssay AID330 (DTP/NCI, 2004).
“And” between values parts separate entries of the source, which are not always exact repeats. Identical values can stand only once. Inconclusive results and toxic doses are left out. Square brackets hold non-standard residues; d marks the D form. Peptide text beside a SMILES is read from it. ξ: configuration not given here. ξF = NC(Cc1ccccc1)C(=O)O

Test system: P388 leukemia ip, CD2F1 mice, survival T/C
Assay: NCI In Vivo Anticancer Drug Screen. Data for tumor model P388 Leukemia (intraperitoneal) in CD2F1 (CDF1) mice
Details: endpoint: median survival time, higher = longer survival
In short: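 Mice carrying the transplanted tumor received test compound or vehicle. Survival was recorded in each group, and the value is the treated-group measurement divided by that of the vehicle-treated control group.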

[1] = dose: 50.0 mg/kg/injection, schedule: Q01DX005 (ip), vehicle: saline with Tween-80
[2] = dose: 100.0 mg/kg/injection, schedule: Q01DX009 (ip), vehicle: saline
[3] = dose: 200.0 mg/kg/injection, schedule: Q01DX009 (ip), vehicle: saline
[4] = dose: 50.0 mg/kg/injection, schedule: Q01DX009 (ip), vehicle: Klucel (hydroxypropylcellulose) (HPC)
[5] = dose: 50.0 mg/kg/injection, schedule: Q01DX009 (ip), vehicle: saline with Tween-80
[6] = dose: 100.0 mg/kg/injection, schedule: Q01DX009 (ip), vehicle: saline with Tween-80
[7] = dose: 200.0 mg/kg/injection, schedule: Q01DX009 (ip), vehicle: saline with Tween-80
[8] = dose: 100.0 mg/kg/injection, schedule: Q01DX005 (ip), vehicle: saline with Tween-80
[9] = dose: 200.0 mg/kg/injection, schedule: Q01DX005 (ip), vehicle: saline with Tween-80
[10] = dose: 50.0 mg/kg/injection, schedule: Q01DX009 (ip), vehicle: saline

`OC(CCC(O)(C(F)(F)F)C(F)(F)F)(C(F)(F)F)C(F)(F)F` was tested, and the T/C (dose: 6.25 mg/kg/injection, schedule: Q01DX005 (ip), vehicle: saline) was 99 % of control, the T/C (dose: 12.5 mg/kg/injection, schedule: Q01DX005 (ip), vehicle: saline) was 101 % of control and the T/C (dose: 25.0 mg/kg/injection, schedule: Q01DX005 (ip), vehicle: saline) was 100 % of control. For the same molecule, the T/C [1] was 103 % of control.

For `CCc1cccc(CC)c1N1C(=O)COCC1=O`, the T/C (dose: 6.25 mg/kg/injection, schedule: Q01DX009 (ip), vehicle: saline) was 96 % of control, the T/C (dose: 12.5 mg/kg/injection, schedule: Q01DX009 (ip), vehicle: saline) was 93 % of control and the T/C (dose: 25.0 mg/kg/injection, schedule: Q01DX009 (ip), vehicle: saline) was 92 % of control. The T/C [2] was 100 % of control and the T/C [3] was 100 % of control.

For `CCCCCCCC/C=C\CCCCCCCCCCCC(=O)O`, the T/C [4] was 100 % of control, the T/C (dose: 50.0 mg/kg/injection, schedule: Q01DX009 (ip), vehicle: other) was 100 % of control and the T/C (dose: 100.0 mg/kg/injection, schedule: Q01DX009 (ip), vehicle: Klucel (hydroxypropylcellulose) (HPC)) was 92 % of control. The T/C (dose: 100.0 mg/kg/injection, schedule: Q01DX009 (ip), vehicle: other) was 106 % of control, the T/C (dose: 200.0 mg/kg/injection, schedule: Q01DX009 (ip), vehicle: Klucel (hydroxypropylcellulose) (HPC)) was 91 % of control and the T/C (dose: 200.0 mg/kg/injection, schedule: Q01DX009 (ip), vehicle: other) was 102 % of control. The T/C (dose: 400.0 mg/kg/injection, schedule: Q01DX009 (ip), vehicle: Klucel (hydroxypropylcellulose) (HPC)) was 98 % of control and the T/C (dose: 400.0 mg/kg/injection, schedule: Q01DX009 (ip), vehicle: other) was 94 % of control.

In the case of `c1ccc2c(c1)O[As](O[As]1Oc3ccccc3O1)O2`, the T/C (dose: 2.5 mg/kg/injection, schedule: Q01DX009 (ip), vehicle: saline with Tween-80) is reported as 106 % of control, the T/C (dose: 5.0 mg/kg/injection, schedule: Q01DX009 (ip), vehicle: saline with Tween-80) is reported as 122 % of control and the T/C (dose: 20.0 mg/kg/injection, schedule: Q01DX009 (ip), vehicle: saline with Tween-80) is reported as 161 % of control.

With `O=S(=O)(Cc1ccccc1)/N=C/c1ccccc1` the T/C [5] was 103 % of control and 105 % of control, the T/C [6] was 99 % of control and 105 % of control and the T/C [7] was 107 % of control and 123 % of control.

With `NC(Cc1ccccc1F)c1nn[nH]n1` (stereo not given) the T/C (dose: 25.0 mg/kg/injection, schedule: Q01DX009 (ip), vehicle: saline with Tween-80) was 108 % of control, the T/C [5] was 97 % of control and the T/C [6] was 99 % of control.

With `O=C(c1ccccc1)C(O)NC(=S)c1cccnc1` (stereo not given) the T/C [5] was 106 % of control, the T/C [6] was 107 % of control and the T/C [7] was 116 % of control.

With `O=C(CCS(=O)(=O)CCC(=O)c1ccccc1)c1ccccc1` the T/C (dose: 100.0 mg/kg/injection, schedule: Q04DX003 (ip), vehicle: saline) was 90 % of control, the T/C (dose: 200.0 mg/kg/injection, schedule: Q04DX003 (ip), vehicle: saline) was 89 % of control and the T/C (dose: 400.0 mg/kg/injection, schedule: Q04DX003 (ip), vehicle: saline) was 88 % of control.

With `CCCCc1c(OC)cc(O)c2c1C(=O)c1[nH]c(C(=O)O)c(O)c(=O)c1C2=O` the T/C (dose: 7.5 mg/kg/injection, schedule: Q01DX009 (ip), vehicle: Klucel (hydroxypropylcellulose) (HPC)) was 98 % of control, the T/C (dose: 15.0 mg/kg/injection, schedule: Q01DX009 (ip), vehicle: Klucel (hydroxypropylcellulose) (HPC)) was 100 % of control and the T/C (dose: 30.0 mg/kg/injection, schedule: Q01DX009 (ip), vehicle: Klucel (hydroxypropylcellulose) (HPC)) was 95 % of control.

`NCC(=O)NC(Cc1ccccc1)C(=O)NCC(=O)O` (stereo not given) (H-Gly-[ξF]-Gly-OH) was tested, and the T/C (dose: 50.0 mg/kg/injection, schedule: Q01DX005 (ip), vehicle: Klucel (hydroxypropylcellulose) (HPC)) was 100 % of control, the T/C (dose: 100.0 mg/kg/injection, schedule: Q01DX005 (ip), vehicle: Klucel (hydroxypropylcellulose) (HPC)) was 104 % of control and the T/C (dose: 200.0 mg/kg/injection, schedule: Q01DX005 (ip), vehicle: Klucel (hydroxypropylcellulose) (HPC)) was 100 % of control.

For `O=C1CN(Cc2ccc(Cl)cc2)CC(=O)N2Cc3ccccc3CN12`, the T/C [1] was 102 % of control, the T/C [8] was 104 % of control and the T/C [9] was 103 % of control.

`COn1nnc2ccc(N)cc21` was tested, and the T/C (dose: 100.0 mg/kg/injection, schedule: Q04DX002 (ip), vehicle: saline) was 99 % of control and the T/C (dose: 200.0 mg/kg/injection, schedule: Q04DX002 (ip), vehicle: saline) was 102 % of control.

For `CC(C)C(NC(=O)C1CCCN1)C(=O)O` (stereo not drawn) (H-Pro-Val-OH; configuration not given here), the T/C [10] was 103 % of control, the T/C [2] was 99 % of control and the T/C [3] was 100 % of control.

With `CNC(=O)NNC(=O)c1ccccc1Cl` the T/C (dose: 60.0 mg/kg/injection, schedule: Q01DX005 (ip), vehicle: saline with Tween-80) was 106 % of control, the T/C (dose: 120.0 mg/kg/injection, schedule: Q01DX005 (ip), vehicle: saline with Tween-80) was 101 % of control and the T/C (dose: 240.0 mg/kg/injection, schedule: Q01DX005 (ip), vehicle: saline with Tween-80) was 103 % of control.

With `c1ccc(SC2=C(Sc3ccccc3)CC2)cc1` the T/C [1] was 102 % of control, the T/C [8] was 111 % of control and the T/C [9] was 102 % of control.

In the case of `Cc1ccccc1NC(=O)CCC(=O)NS(C)(=O)=O`, the T/C (dose: 100.0 mg/kg/injection, schedule: Q01DX001 (ip), vehicle: saline with Tween-80) is reported as 102 % of control, the T/C (dose: 200.0 mg/kg/injection, schedule: Q01DX001 (ip), vehicle: saline with Tween-80) is reported as 95 % of control and the T/C (dose: 400.0 mg/kg/injection, schedule: Q01DX001 (ip), vehicle: saline with Tween-80) is reported as 95 % of control.

In the case of `COC(=O)[C@@]12OC[C@]34[C@H]([C@@H](O)[C@@H]1O)[C@@]1(C)CC(=O)C(OC(=O)CC(=O)OC5=C(C)[C@@H]6C[C@H]7OC(=O)[C@H](OC(=O)C=C(C)C)[C@H]8[C@]9(C(=O)OC)OC[C@]78[C@H]([C@@H](O)[C@@H]9O)[C@@]6(C)CC5=O)=C(C)[C@@H]1C[C@H]3OC(=O)[C@H](OC(=O)C=C(C)C)[C@@H]24`, the T/C (dose: 0.3 mg/kg/injection, schedule: Q01DX009 (ip), vehicle: saline with Tween-80) is reported as 106 % of control, the T/C (dose: 0.6 mg/kg/injection, schedule: Q01DX009 (ip), vehicle: saline with Tween-80) is reported as 107 % of control and the T/C (dose: 0.9 mg/kg/injection, schedule: Q01DX009 (ip), vehicle: saline with Tween-80) is reported as 113 % of control.

For `CCN(CC)CCCC(Nc1c2ccc(Cl)cc2nc2ccc(OC)cc12)c1ccc(F)cc1` (stereo not given), the T/C (dose: 12.5 mg/kg/injection, schedule: Q01DX005 (ip), vehicle: saline with Tween-80) was 96 % of control, the T/C (dose: 25.0 mg/kg/injection, schedule: Q01DX005 (ip), vehicle: saline with Tween-80) was 98 % of control and the T/C [1] was 100 % of control and 107 % of control.

`CN(C)C1C(=O)C(C(=O)NCN2CCOB(c3ccccc3)OCC2)=C(O)C2(O)C(O)=C3C(=O)C4C(O)=CC=CC4C(C)(O)C3CC12` (stereo not given) was tested, and the T/C (dose: 12.5 mg/kg/injection, schedule: Q04DX002 (ip), vehicle: saline) was 101 % of control, the T/C (dose: 25.0 mg/kg/injection, schedule: Q04DX002 (ip), vehicle: saline) was 105 % of control and the T/C (dose: 50.0 mg/kg/injection, schedule: Q04DX002 (ip), vehicle: saline) was 108 % of control.

With `CCOC(=O)NC(=S)c1ccc[nH]1` the T/C (dose: 12.5 mg/kg/injection, schedule: Q01DX009 (ip), vehicle: Klucel (hydroxypropylcellulose) (HPC)) was 95 % of control, the T/C (dose: 25.0 mg/kg/injection, schedule: Q01DX009 (ip), vehicle: Klucel (hydroxypropylcellulose) (HPC)) was 87 % of control and the T/C [4] was 95 % of control and 98 % of control.

For `Cc1c(Cl)cccc1NC(=O)/C=C/C(=O)O`, the T/C (dose: 100.0 mg/kg/injection, schedule: Q04DX003 (ip), vehicle: saline with Tween-80) was 90 % of control, the T/C (dose: 200.0 mg/kg/injection, schedule: Q04DX003 (ip), vehicle: saline with Tween-80) was 95 % of control and the T/C (dose: 400.0 mg/kg/injection, schedule: Q04DX003 (ip), vehicle: saline with Tween-80) was 90 % of control.

In the case of `O=C(OCc1ccccc1)N1C[C@@H](O)[C@H](Br)[C@H]1Cc1ccccc1`, the T/C (dose: 100.0 mg/kg/injection, schedule: Q01DX001 (ip), vehicle: distilled water + alcohol) is reported as 103 % of control, the T/C (dose: 200.0 mg/kg/injection, schedule: Q01DX001 (ip), vehicle: distilled water + alcohol) is reported as 100 % of control and the T/C (dose: 400.0 mg/kg/injection, schedule: Q01DX001 (ip), vehicle: distilled water + alcohol) is reported as 97 % of control.

In the case of `O=c1ccc2ccc3[nH]onc3c2c1`, the T/C [1] is reported as 100 % of control, the T/C [8] is reported as 93 % of control and the T/C [9] is reported as 88 % of control.

For `CC(N)S(=O)(=O)O` (stereo not given), the T/C [10] was 104 % of control, the T/C [2] was 98 % of control and the T/C [3] was 104 % of control. The T/C (dose: 400.0 mg/kg/injection, schedule: Q01DX009 (ip), vehicle: saline) was 88 % of control.
